From US7935722B2 (Eli Lilly and Company, priority 2005, dated 2011)
Read-outs that look alike come from different tables or passages of the source.

Experiments:
[1] = target: T1, human androgen receptor (AR) (Homo sapiens, UniProt P10275); assay: C2C12 AR/ARE reporter assay; assay type: cell-based
T1 construct: expressed in transfected cells; host or cells: mouse myoblast C2C12 cells, transiently co-transfected
T1 sequence (P10275 1-920): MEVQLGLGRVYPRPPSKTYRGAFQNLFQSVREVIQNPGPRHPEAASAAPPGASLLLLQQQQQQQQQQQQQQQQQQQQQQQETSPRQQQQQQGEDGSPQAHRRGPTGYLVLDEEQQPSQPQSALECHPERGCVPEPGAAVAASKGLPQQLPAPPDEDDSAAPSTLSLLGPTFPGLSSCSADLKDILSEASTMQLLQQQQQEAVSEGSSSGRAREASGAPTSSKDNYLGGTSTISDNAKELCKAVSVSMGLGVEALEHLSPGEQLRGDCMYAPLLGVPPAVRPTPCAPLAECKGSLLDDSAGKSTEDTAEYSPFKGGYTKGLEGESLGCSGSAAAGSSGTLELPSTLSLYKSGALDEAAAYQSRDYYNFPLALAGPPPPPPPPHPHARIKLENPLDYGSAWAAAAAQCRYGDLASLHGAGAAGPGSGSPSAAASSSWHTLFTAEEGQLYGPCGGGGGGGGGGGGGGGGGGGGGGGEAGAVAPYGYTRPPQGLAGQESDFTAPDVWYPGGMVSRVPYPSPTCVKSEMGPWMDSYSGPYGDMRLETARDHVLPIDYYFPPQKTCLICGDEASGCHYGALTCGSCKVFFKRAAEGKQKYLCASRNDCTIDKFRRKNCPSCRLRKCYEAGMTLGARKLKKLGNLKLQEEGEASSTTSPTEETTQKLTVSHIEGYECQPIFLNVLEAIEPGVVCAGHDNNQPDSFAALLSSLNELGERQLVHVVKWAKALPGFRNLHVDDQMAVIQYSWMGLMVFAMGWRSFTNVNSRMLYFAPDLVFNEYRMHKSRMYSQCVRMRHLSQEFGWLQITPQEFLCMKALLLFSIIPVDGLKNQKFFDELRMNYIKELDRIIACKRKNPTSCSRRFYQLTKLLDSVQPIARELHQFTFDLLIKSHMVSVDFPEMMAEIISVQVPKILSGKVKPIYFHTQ
Summary of the method: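 Mouse C2C12 myoblasts co-transfected with AR/ARE reporter were plated in charcoal-stripped serum and treated for 48 h with compound from about 0.01 nM to 10 μM. Luciferase activity gave EC50 by 4-parameter logistic fit. Efficacy is expressed as % of maximal stimulation by 10 nM methyltrienolone.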

[2] = target: T2, human AR (androgen receptor) (Homo sapiens, UniProt P10275); assay: Steroid hormone nuclear receptor binding assay, AR binding
T2 construct: expressed in transfected cells; host or cells: 293 cells (293-AR lysate)
T2 sequence (P10275 1-920): T1 sequence (P10275 1-920)
Summary of the method: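 Competition binding with lysates of 293 cells overexpressing human AR, [3H]-methyltrienolone tracer, compounds from about 0.01 nM to 10 μM, overnight at 4 °C; non-specific binding set with 500 nM methyltrienolone. Bound tracer counted by scintillation after charcoal-dextran separation; IC50 converted to Ki by Cheng-Prusoff using Kd from saturation binding.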

[3] = C2C12, read-out: C2C12 % Efficacy
[4] = C2C12 AR/ARE reporter assay, average of n trials, read-out: C2C12 % Efficacy
[5] = C2C12 AR/ARE reporter assay, average of n trials, read-out: C2C12 EC50
[6] = average of n trials, read-out: AR binding Ki

SMILES: CC(=O)c1ccc2c(c1)c1c(n2Cc2cccc(F)c2)CC[C@@H](NC(=O)C(C)C)C1 [Example 191, (R)-N-[6-Acetyl-9-(3-fluoro-benzyl)-2,3,4,9-tetrahydro-1H-carbazol-3-yl]-isobutyramide]
- EC50 [1]: 1.2 nM
- Emax [1, 3]: 91.2%
- Ki [2]: 3.3 nM

SMILES: N#Cc1ccc2c(c1)c1c(n2Cc2cccc(F)c2)CC[C@@H](NC(=O)C2CC2)C1 [Example 194, (R)-Cyclopropanecarboxylic acid[6-cyano-9-(3-fluorobenzyl)-2,3,4,9-tetrahydro-1H-carbazol-3-yl]amide]
- EC50 [1]: 2 nM
- Emax [1, 3]: 95.5%
- Ki [2]: 1.3 nM

SMILES: CC(C)C(=O)NC1CCc2c(c3cc(C=O)ccc3n2Cc2cccc(F)c2)C1 (stereo not drawn) [Example 197, N-[9-(3-Fluoro-benzyl)-6-formyl-2,3,4,9-tetrahydro-1H-carbazol-3-yl]-isobutyramide]
- EC50 [1]: 26.8 nM
- Emax [1, 3]: 147%
- Ki [2]: 4.2 nM

SMILES: CC(C)C(=O)NC1CCc2c(c3cc(C(F)F)ccc3n2Cc2cccc(F)c2)C1 (stereo not drawn) [Example 198, N-[6-Difluoromethyl-9-(3-fluoro-benzyl)-2,3,4,9-tetrahydro-1H-carbazol-3-yl]-isobutyramide]
- Emax [1, 4]: 102%
- EC50 [1, 5]: 11 nM
- Ki [2, 6]: 3.2 nM

SMILES: CC(C)C(=O)N[C@@H]1CCc2c(c3cc(C=O)ccc3n2Cc2cccc(F)c2)C1 [Example 200, (R)-N-[9-(3-Fluorobenzyl)-6-formyl-2,3,4,9-tetrahydro-1H-carbazol-3-yl]-isobutyramide]
- EC50 [1]: 8.1 nM
- Emax [1, 3]: 112%
- Ki [2]: 2.8 nM

SMILES: CO/N=C/c1ccc2c(c1)c1c(n2Cc2cccc(F)c2)CC[C@@H](NC(=O)C(C)C)C1 [Example 201, (R)-N-[9-(3-Fluorobenzyl)-6-(methoxyimino-methyl)-2,3,4,9-tetrahydro-1H-carbazol-3-yl]-isobutyramide]
- Emax [1, 4]: 79.9%
- EC50 [1, 5]: 5 nM
- Ki [2, 6]: 2.9 nM

SMILES: CO/N=C/c1ccc2c(c1)c1c(n2Cc2cccc(F)c2)CCC(NC(=O)C2CC2)C1 (stereo not drawn) [Example 202, Cyclopropanecarboxylic acid[9-(3-fluorobenzyl)-6-(methoxyimino-methyl)-2,3,4,9-tetrahydro-1H-carbazol-3-yl]-amide]
- EC50 [1]: 1.5 nM
- Emax [1, 3]: 90.5%
- Ki [2]: 4.7 nM

SMILES: O=C(N[C@@H]1CCc2c(c3cc(/C=N/O)ccc3n2Cc2cccc(F)c2)C1)C1CC1 [Example 203, (R)-Cyclopropanecarboxylic acid[9-(3-fluoro-benzyl)-6-(hydroxyimino-methyl)-2,3,4,9-tetrahydro-1H-carbazol-3-yl]-amide]
- Emax [1, 4]: 73.1%
- EC50 [1, 5]: 20.2 nM
- Ki [2, 6]: 12.3 nM

SMILES: O=Cc1ccc2c(c1)c1c(n2Cc2ccccn2)CCC(NC(=O)C2CC2)C1 (stereo not drawn) [Example 206]
- EC50 [1]: 206 nM
- Emax [1, 3]: 96.1%
- Ki [2]: 99.2 nM

SMILES: CC(C)C(=O)NC1CCc2c(c3cc(C(=O)C(F)(F)F)ccc3n2Cc2cccc(F)c2)C1 (stereo not drawn) [Example 210, N-[9-(3-Fluoro-benzyl)-6-(2,2,2-trifluoro-acetyl)-2,3,4,9-tetrahydro-1H-carbazol-3-yl]-isobutyramide]
- EC50 [1]: 17.6 nM
- Emax [1, 3]: 71.2%
- Ki [2]: 15.5 nM

SMILES: Cc1nc(Cn2c3c(c4cc(C=O)ccc42)C[C@H](NC(=O)C(C)C)CC3)cs1 [Example 211, (R)-N-[6-Formyl-9-(2-methyl-thiazol-4-ylmethyl)-2,3,4,9-tetrahydro-1H-carbazol-3-yl]-isobutyramide]
- EC50 [1]: 86.7 nM
- Emax [1, 3]: 88.4%
- Ki [2]: 43.7 nM

SMILES: CO/N=C/c1ccc2c(c1)c1c(n2Cc2csc(C)n2)CC[C@@H](NC(=O)C(C)C)C1 [Example 212, (R)-N-[6-(Methoxyimino-methyl)-9-(2-methyl-thiazol-4-ylmethyl)-2,3,4,9-tetrahydro-1H-carbazol-3-yl]-isobutyramide]
- EC50 [1]: 7.8 nM
- Emax [1, 3]: 90.4%
- Ki [2]: 16.7 nM

SMILES: CN(C)S(=O)(=O)NC1CCc2c(c3cc(C#N)ccc3n2Cc2cccc(F)c2)C1 (stereo not drawn) [Example 213, N-[6-Cyano-9-(3-fluoro-benzyl)-2,3,4,9-tetrahydro-1H-carbazol-3-yl]-N′,N′-dimethylmethanesulfamide]
- EC50 [1]: 40.2 nM
- Emax [1, 3]: 95.4%
- Ki [2]: 3.2 nM
